Patent US9855281B2, “Libido-enhancing therapeutic and use” (Scott Freeman Consultant, LLC, priority 2013, dated 2018)
“Also recorded” adds a separate entry of the source.

Tests used:
[1] = test system: male rats; assay: In vivo libido stimulation assessment (mounts of rat couples); set-up: species or system Rattus novergicus, Wistar; details: for mount kinetics profile along the night: FIGS. 12A-12F, time after coupling
Protocol: Female and male rats (Rattus novergicus) Wistar strain, with 200-280 g and 8-12 weeks old, were purchased from University of São Paulo Central Animal Care Unity. They were kept in controlled environment, including dark-light periods (12 hours each), temperature (22° to 25° C.), and with free access to water and food.
Female Wistar rats, weighing about 250 g, were ovariectomized. The procedure initiated inducing general anesthesia with Dopalen (Ketamin 70 mg/kg) and Anasedan (Xilazin 12 mg/kg), then abdominal wall was […] by the linea alba region, ovaries location, ligation of vessels supplying the ovaries and the procedure was completed with ovariectomy, itself, as well as the suture of the abdominal wall and skin. After surgery the animals received analgesic (tramadol 2 mg/kg), antibiotic (enrofloxacin, 10 mg/kg) and anti-inflammatory (Maxicam—2 mg/kg) for at least one week, or more if necessary.
Pseudo-estrus inducing. The females received estradiol (0.2 mg/day) subcutaneously for two weeks after ovariotomoy for pseudo-estrus state inducing. This condition was evaluated by vaginal smears each two days after estradiol treatment beginning. Sterile cotton-tipped swabs wetted in distilled water were gently and quickly introduced into the vaginal orifice, carefully rotated (one twist) against the vaginal wall. Rats were not anesthetized during smear collection. Afterwards, the collected sample of vaginal epithelial cells was placed on glass slides, dried at 37° C., and fixed in an ethanol-ether solution (1:1) for one minute.
The slides were then examined under light microscopy. Only females in pseudo-estrus conditions were used for libido stimulation assessment (PACCOLA et al, 2013).
Libido stimulation assessment. For libido stimulation assessments, first male rats, weighing about 250-280 g, had their penis anesthetized with 2% lidocaine by topical route 10 minutes before treatment. The three drugs were administered orally at 50 mg/kg each two days for six days (each rat received three doses). Nandrolone (IM) was used as the positive control group while olive oil and water were used as negative controls (orally administrated), as described below in TABLE 2. After one hour of treatment, couples were put together in a box, and a video camera with night vision was adequately positioned to encompass all the groups in the video, recording overnight the matches.
Analysis of the videos was performed according to the following parameters: time to first mating, duration of mounts, and quantity of mounts.
The libido studies focused the investigation in how drugs would stimulate male rats to increase matching. Considering that sexual activity in animals is related with reproduction and not only with pleasure, assessment of increase desire is particular subjective. To ensure that the observations were related with Central Nervous System modulation, 2% Lidocaine was topically applied at penis glans, to avoid any local stimulation.
The animals were treated each two days with 50 mg/Kg of test drugs (given orally), water and olive oil as negative control (given orally) and nandrolone (IM).

[2] = test system: human; assay: Accidental physical contact of a human with the compositions (Example 1); format: in vivo; details: accidental physical contact with Formulas (I), (II) and (III) together while synthesizing
Source text: A human came in physical contact with the compositions of the libido-enhancing therapeutics of Formula (I), Formula (II), and Formula (III) by accident while synthesizing the compositions.

[3] = rats, 50 mg/Kg orally, nandrolone IM

Row | SMILES | total number of mounts after each treatment ([1]; FIG. 10, 50 mg/Kg orally each two days, three doses, nandrolone IM, compared with controls and other drugs) | number of mounts per hour, difference to nandrolone ([1]; FIG. 11, 50 mg/Kg orally, nandrolone IM) | mount kinetics profile along the night ([1]; 50 mg/Kg orally, nandrolone IM, listed as CAS 5138-34-1, 50 mg/kg) | mount kinetics profile along the night ([1]; 50 mg/Kg orally, nandrolone IM, listed as CAS 5238-34-1, 50 mg/kg) | stress or fatigue after each intercourse ([1]; rats, 50 mg/Kg orally) | libido stimulation [1, 3] | arousal and libido [2] | mount kinetics profile along the night ([1]; 50 mg/Kg orally, nandrolone IM)
1 | CC(=O)O[C@H]1CCC2C3CC[C@H]4CC(=O)CC[C@H]4C3CC[C@@]21C (stereo partly drawn) [Formula (I), (5S,10R,13S,17S)-13-methyl-3-oxohexadecahydro-1H-cyclopenta[a]phenanthren-17yl acetate] | significantly increased | more than twice | low activity at the first three hours after coupling; also recorded: intense and sustainable activity was achieved after the third hour until the seventieth hour of observation | took a long time to have some effect | no kind of stress of fatigue was observed | effective and sustainable late libido stimulation for greater than seven hours | weekend-long period of arousal and increased libido | –
2 | CC(=O)O[C@H]1CCC2C3CC[C@H]4C[C@@H](O)CC[C@H]4C3CC[C@@]21C (stereo partly drawn) [Formula (II), (3S,5S,10R,13S,17S)-3-hydroxy-13-methylhexadecahydro-1H-cyclopenta[a]phenanthren-17yl acetate] | – | – | – | – | – | – | weekend-long period of arousal and increased libido | total decrease of activity after 2 hours coupling
3 | C[C@]12CCC3C(CC[C@H]4CC(=O)CC[C@H]34)C1CC[C@@H]2O (stereo partly drawn) [Formula (III), (5S,10S,13S,17S)-17-hydroxy-13-methyltetradecahydro-1H-cyclopenta[a]phenanthren-3(2H)-one] | – | – | – | – | – | – | weekend-long period of arousal and increased libido | few mounts in subsequently hours
4 | C[C@]12CC[C@H]3[C@@H](CCC4=CC(=O)CC[C@@H]43)[C@@H]1CC[C@@H]2O [Nandrolone, reference compound] | – | – | – | – | – | enhance libido early (hours) | – | low stimulation at the first three hours with a peak of activity at the fourth hour retuning to baseline (zero activity) at the sixth hour
